From ChEMBL document CHEMBL3991601, “The target landscape of clinical kinase drugs” (Science, 2017) come the findings set out here.

The target in experiment [1] is T1, Very long-chain specific acyl-CoA dehydrogenase, mitochondrial (Homo sapiens, UniProt P49748).
T1 sequence (P49748 whole entry): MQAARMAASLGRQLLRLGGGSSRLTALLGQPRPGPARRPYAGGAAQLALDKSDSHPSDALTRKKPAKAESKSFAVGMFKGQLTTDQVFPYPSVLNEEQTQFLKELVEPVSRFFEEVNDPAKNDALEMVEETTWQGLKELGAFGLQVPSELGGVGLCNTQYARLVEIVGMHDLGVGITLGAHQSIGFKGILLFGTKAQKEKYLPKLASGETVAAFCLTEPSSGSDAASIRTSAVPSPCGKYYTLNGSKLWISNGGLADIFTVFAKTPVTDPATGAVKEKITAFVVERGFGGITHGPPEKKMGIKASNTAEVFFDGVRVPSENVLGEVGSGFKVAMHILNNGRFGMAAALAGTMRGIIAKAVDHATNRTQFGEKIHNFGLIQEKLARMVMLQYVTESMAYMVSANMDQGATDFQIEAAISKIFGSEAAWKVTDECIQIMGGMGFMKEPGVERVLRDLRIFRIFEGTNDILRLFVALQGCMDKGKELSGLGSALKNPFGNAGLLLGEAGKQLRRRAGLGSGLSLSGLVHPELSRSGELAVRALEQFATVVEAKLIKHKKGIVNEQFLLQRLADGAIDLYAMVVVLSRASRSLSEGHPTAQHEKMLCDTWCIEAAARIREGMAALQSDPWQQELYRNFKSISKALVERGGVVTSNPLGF

In experiment [2] the target is T2, Dual specificity mitogen-activated protein kinase kinase 5 (Homo sapiens, UniProt Q13163).
T2 sequence (Q13163 whole entry): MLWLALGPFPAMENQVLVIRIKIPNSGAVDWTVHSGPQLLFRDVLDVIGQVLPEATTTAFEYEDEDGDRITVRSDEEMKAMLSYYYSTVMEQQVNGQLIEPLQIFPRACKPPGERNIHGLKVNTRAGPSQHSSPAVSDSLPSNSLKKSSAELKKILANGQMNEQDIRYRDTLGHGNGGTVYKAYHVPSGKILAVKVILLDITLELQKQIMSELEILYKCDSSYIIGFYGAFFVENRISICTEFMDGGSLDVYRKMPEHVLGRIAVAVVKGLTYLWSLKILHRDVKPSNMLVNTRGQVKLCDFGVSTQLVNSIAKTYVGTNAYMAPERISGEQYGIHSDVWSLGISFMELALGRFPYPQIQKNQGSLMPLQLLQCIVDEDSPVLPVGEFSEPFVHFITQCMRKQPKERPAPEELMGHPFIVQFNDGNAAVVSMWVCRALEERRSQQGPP

Experiment [3] addresses T3, NUAK family SNF1-like kinase 2 (Homo sapiens, UniProt Q9H093).
T3 sequence (Q9H093 whole entry): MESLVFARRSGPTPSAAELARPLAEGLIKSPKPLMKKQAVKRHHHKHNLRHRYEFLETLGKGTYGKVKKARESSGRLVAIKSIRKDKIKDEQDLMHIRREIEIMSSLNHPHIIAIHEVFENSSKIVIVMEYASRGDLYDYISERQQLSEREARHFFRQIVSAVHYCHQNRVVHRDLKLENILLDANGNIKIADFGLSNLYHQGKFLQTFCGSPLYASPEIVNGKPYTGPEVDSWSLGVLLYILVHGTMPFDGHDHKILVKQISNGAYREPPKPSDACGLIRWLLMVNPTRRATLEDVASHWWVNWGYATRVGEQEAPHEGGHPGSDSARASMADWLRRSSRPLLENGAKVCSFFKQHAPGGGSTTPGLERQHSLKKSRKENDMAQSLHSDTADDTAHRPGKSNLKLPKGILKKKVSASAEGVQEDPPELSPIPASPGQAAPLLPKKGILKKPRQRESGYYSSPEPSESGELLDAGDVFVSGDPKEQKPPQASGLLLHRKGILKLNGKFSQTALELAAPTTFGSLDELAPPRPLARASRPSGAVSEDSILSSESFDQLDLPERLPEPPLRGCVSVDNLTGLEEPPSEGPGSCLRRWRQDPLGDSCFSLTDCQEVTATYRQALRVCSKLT

Experiment [4] addresses cAMP-dependent protein kinase type II-alpha regulatory subunit (Homo sapiens, UniProt P13861).
For experiment [5], the target named is Serine/threonine-protein kinase SIK3 (Homo sapiens, UniProt Q9Y2K2).
In experiment [6] the target is T4, Serine/threonine-protein kinase STK11 (Homo sapiens, UniProt Q15831).
T4 sequence (Q15831 whole entry): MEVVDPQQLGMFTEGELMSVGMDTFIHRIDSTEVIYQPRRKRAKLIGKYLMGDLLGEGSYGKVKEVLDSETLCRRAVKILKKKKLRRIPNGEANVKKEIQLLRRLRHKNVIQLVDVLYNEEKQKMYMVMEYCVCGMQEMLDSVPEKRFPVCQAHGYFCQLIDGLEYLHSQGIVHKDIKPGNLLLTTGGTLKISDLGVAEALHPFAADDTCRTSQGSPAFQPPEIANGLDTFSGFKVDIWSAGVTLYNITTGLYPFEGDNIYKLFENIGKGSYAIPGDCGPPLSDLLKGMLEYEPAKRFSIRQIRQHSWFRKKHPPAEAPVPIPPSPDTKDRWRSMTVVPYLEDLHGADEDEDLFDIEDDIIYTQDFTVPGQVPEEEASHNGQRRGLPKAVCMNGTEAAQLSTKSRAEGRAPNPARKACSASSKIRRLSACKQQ

Each structure is given as a SMILES string. Active and inactive are the calls of the source.
Also: in the data inactive means no Kd found up to 30 µM.

Sequence of cAMP-dependent protein kinase type II-alpha regulatory subunit (P13861 whole entry): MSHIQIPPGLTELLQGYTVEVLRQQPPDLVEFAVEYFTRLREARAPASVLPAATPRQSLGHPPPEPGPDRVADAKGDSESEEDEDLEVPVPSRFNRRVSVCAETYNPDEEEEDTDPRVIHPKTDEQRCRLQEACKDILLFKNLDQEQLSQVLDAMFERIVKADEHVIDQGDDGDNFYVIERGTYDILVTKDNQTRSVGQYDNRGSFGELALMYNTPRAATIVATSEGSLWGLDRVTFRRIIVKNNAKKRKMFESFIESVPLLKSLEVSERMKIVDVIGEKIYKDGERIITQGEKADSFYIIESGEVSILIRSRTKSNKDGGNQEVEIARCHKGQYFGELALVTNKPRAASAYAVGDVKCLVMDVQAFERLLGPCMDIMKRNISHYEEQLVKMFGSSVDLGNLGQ
Sequence of Serine/threonine-protein kinase SIK3 (Q9Y2K2 whole entry): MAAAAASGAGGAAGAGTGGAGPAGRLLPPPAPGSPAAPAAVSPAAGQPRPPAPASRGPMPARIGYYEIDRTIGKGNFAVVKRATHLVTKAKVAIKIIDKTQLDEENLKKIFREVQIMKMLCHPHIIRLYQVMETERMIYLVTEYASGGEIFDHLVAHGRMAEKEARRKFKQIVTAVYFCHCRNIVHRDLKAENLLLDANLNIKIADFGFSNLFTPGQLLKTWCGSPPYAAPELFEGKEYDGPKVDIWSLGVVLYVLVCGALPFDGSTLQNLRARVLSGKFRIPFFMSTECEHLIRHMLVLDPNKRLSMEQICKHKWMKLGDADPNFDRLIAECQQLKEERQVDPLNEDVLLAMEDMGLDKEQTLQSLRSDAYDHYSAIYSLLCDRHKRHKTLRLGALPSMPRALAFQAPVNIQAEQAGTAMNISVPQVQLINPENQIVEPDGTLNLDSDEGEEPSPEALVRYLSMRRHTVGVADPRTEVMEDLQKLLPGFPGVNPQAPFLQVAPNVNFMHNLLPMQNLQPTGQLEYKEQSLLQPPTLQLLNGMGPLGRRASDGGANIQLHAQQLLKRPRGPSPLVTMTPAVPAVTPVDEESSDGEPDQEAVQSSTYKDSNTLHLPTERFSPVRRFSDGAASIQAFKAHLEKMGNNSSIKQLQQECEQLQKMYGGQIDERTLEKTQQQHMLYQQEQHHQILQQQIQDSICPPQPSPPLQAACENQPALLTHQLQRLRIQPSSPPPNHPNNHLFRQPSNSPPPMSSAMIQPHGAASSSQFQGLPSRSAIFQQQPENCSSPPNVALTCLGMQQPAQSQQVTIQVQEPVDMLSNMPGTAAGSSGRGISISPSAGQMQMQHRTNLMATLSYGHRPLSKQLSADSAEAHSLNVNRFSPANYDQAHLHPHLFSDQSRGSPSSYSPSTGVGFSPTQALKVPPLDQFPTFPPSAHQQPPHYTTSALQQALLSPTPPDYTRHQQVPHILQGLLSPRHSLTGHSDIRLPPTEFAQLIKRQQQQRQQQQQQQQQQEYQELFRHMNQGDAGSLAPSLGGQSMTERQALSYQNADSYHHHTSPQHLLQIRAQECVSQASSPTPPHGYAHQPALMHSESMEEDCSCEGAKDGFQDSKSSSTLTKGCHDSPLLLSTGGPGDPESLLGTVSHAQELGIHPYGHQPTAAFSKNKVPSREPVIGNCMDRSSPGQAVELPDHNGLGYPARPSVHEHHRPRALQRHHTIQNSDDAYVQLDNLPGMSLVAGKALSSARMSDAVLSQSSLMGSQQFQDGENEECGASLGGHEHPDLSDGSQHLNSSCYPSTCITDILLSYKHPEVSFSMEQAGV

`CNC(=O)c1cc(COc2nnc(Nc3ccc(Cl)cc3)c3ccoc23)ccn1` [TELATINIB]: the Kd in experiment [1], in experiment [2], in experiment [3], in experiment [4], in experiment [5] and in experiment [6] was > 30 µM (inactive) each time.

As for `CNC(=O)c1cccc(-c2ccc3c(N4CCOC[C@@H]4C)nc(N4CCOC[C@@H]4C)nc3n2)c1` [VISTUSERTIB], the Kd in experiment [1], in experiment [2], in experiment [3], in experiment [4], in experiment [5] and in experiment [6] was > 30 µM (inactive) each time.

`O=C(NOC[C@H](O)CO)c1ccc(F)c(F)c1Nc1ccc(I)cc1F` [MIRDAMETINIB]: the Kd (usually the equilibrium constant for the complex coming apart) is > 30 µM (inactive) in experiment [1]; 0.808 µM (active) in experiment [2]; > 30 µM (inactive) in experiment [3]; > 30 µM (inactive) in experiment [4]; > 30 µM (inactive) in experiment [5]; > 30 µM (inactive) in experiment [6].
